The values below come from patent US20050112555A1, “Cytidine deaminase activators, deoxycytidine deaminase activators, Vif antagonists, and methods of screening for molecules thereof” (priority 2003, published 2005).

The subject of the assay is intracellular CEM15. Briefly: Western blot of CEM15 abundance after co-expression of CEM15 and Vif in 293T cells. The class given is cell-based, human. The settings on record: within 36-48 h post-transfection. An excerpt:
CEM15 abundance can be quantified by western blotting as described above. Small molecules that bind to any of the aforementioned peptides can be evaluated for their ability to protect or restore CEM15 abundance using the aforementioned western blotting systems of whole cell extracts of cells that have been transfected with CEM15 and Vif wherein these proteins are co-expressed in 293T cells (conditions that result in CEM15 destruction) and evaluated (by western blotting of cell extracts) for the ability of VDA peptides of varying size and sequence to restore CEM15 abundance. Co-expression of CEM15 and Vif by transfection in 293T cells results ˜99% ablation of intracellular CEM15 within 36-48 h post-transfection. […] All peptides are tested according to this schedule. Expression of CEM15 and Vif are driven from the CMV promoter of pcDNA3 plasmids.
A general note: A western blot detects proteins with antibodies after separation by electrophoresis.

Turning to “Vif: HIV-1 viral infectivity factor, SEQ ID NO: 7; induces degradation of CEM15”, the “ablation of intracellular CEM15” value is roughly 99%.
